Source: publication PMC12491701, “Discovery of an APP-selective BACE1 inhibitor for Alzheimer's disease” (Neurotherapeutics, 2025)
Values after ≈ are worked out from the molar mass of the structure shown. Values joined by “and” are separate entries in the source; they are usually repeats but may differ in a detail not shown here. Equal values may be shown once.

Experiments:
[1] = biological target: BACE1 (Homo sapiens, UniProt P56817); test: P5-P5′ BACE1 inhibition assay; assay type: biochemical; details: cell-free; read-out: BACE1 IC50 (P5-P5′ assay; BACE1-APP)
Method: For the P5-P5′ BACE1 inhibition assay, 4 ​μL of assay buffer was added to each well, followed by 2 ​μL of BACE1 diluted in assay buffer to 7.5 ​ng/μL. Then, 2 ​μL of inhibitor, at concentrations along an 11 ​pt. two-fold dilution series starting at 10 ​μM, or 0.5 ​μM, were added to appropriate wells and incubated for 30 ​min at room temperature. For all dilutions of inhibitor, drug stock solutions of 10 ​mM in DMSO were diluted to 50 ​μM in water; subsequent dilutions were in 0.5 ​% DMSO. Afterwards, 2 ​μL of fluorogenic P5-P5′ BACE1 substrate, diluted to 50 ​μM in assay buffer, were added to each well and the signal generated was read every 30 ​min at 25 ​°C for 2 ​h.

[2] = biological target: T1, BACE1 cleavage of NRG1 (Homo sapiens, UniProt P56817); test: SEAP-NRG assay; assay type: cell-based
T1 construct: with or without full-length wild-type BACE1; expressed in transfected cells; host or cells: HEK293
Method: A cDNA construct encoding a human placental secreted alkaline phosphatase (SEAP)-NRG1 (pAPtag5-NRG1-β1) fusion protein was transfected in human embryonic kidney (HEK293) cells in a 6-well format with or without full-length wild-type BACE1 using Lipofectamine 2000 (Invitrogen) as described previously [27]. After transfection, the medium was replaced with DMEM containing the test compound at 10, 5, 1, 0.1, and 0.01 ​μM as well as 10 ​% heat-inactivated fetal bovine serum (FBS), then incubated for 24 ​h. SEAP activity was measured in the conditioned medium.

[3] = biological target: T2, cathepsin D (CatD) (Homo sapiens, UniProt P07339); test: Cathepsin D activity assay; assay type: biochemical
T2 construct: purchased R&D Systems 1014-AS
Method: The effects of candidate ASBIs on cathepsin D (CatD) activity was assessed using the R&D Systems CatD activity assay kit (Catalog #: 1014-AS and ES001) according to the manufacturer's instructions. For the assay, 4 μL of assay buffer was added to each well, followed by 2 μL of CatD diluted in assay buffer to 5 ng/uL. Then, 2 μL of inhibitor, at concentrations along an 11 pt. two-fold dilution series starting at 50 μM, were added to appropriated wells and incubated for 30 min at room temperature. For all dilutions of inhibitor, drug stock solutions of 10 mM in DMSO were diluted to 50 μM in water; subsequent dilutions were in 2.5 % DMSO. Afterwards, 2 μL of fluorogenic CatD substrate, diluted to 50 μM in assay buffer, were added to each well, after which the signal generated was read every 30 min at 25 °C for 1hr.

[4] = system: CHO-7W cells expressing wildtype human APP; test: sAPPβ and Aβ1-42 production in CHO-7W cells (AlphaLISA); assay type: cell-based, Chinese hamster
Method: (§1) Culture Media was collected and frozen. Media was assayed using an AlphaLISA for Aβ1-42 (Perkin Elmer catalog # AL276C), sAPPα (R&D Systems catalog # AF1168 conjugated with Perkin Elmer acceptor beads catalog # 6772001 + 2B3 antibody from IBL catalog # 11088 biotinylated), and sAPPβ (Perkin Elmer AL276-acceptor + IBL catalog # 18957 biotinylated). For the assay, 2 μL of diluted or undiluted sample was added to a 384 well plate, followed by 2 μL of the respective antibody mixture. This was incubated for 1 h. Afterwards, 2 μL of donor beads was added to each well, followed by a 30-min incubation in the dark, after which the signal was read.

[5] = system: CHO cells that express APP with the Swedish (Swe) K595N/M596L mutation; test: Aβ1-42 production in CHO-7W Swe cells; assay type: cell-based, Chinese hamster; details: 1 μM, 24-h treatment, in words
Method: as §1, with “The Chinese hamster ovary (CHO) cell line overexpressing human AβPP (7W) stably transfected with human APP or overexpressing APP with the Swedish (Swe) K595 N/M596L mutation were incubated with FAH compounds diluted to 1 μM overnight. Culture” for “Culture”

[6] = Kinetic solubility assay; assay type: physicochemical; details: aqueous buffer, kinetic from dmso stock, PBS pH 7.4, 37 °C
Method: FAH65 and its enantiomers at 10 mM in 100% DMSO was diluted in PBS pH 7.4 to 100, 10, 1, and 0.1 µM; plus, a vehicle-only control. The solutions were incubated at 37 °C for 90 min and centrifuged at 16K x g for 5 min. An aliquot of each supernatant was analyzed by LC-MS/MS. A standard curve was generated by plotting the known amount of analyte per standard in DMSO vs. chromatographic peak […]
Kinetic solubility (µM) was calculated using the trendline equation with maximum chromatographic peak area observed in the aqueous sample. (Table S3)
Liver microsome stability assay
A 1 µL sample of 1 mM FAH65 and its enantiomers in 100% DMSO was added to 1 mL of 0.5 mg/mL human liver microsomes (Thermo Fisher Scientific, Cat# HMMPL) in PBS pH 7.4, 2 mM NADPH, and 2 mM MgCl2; and incubated at 37 °C for 120 min. Aliquots (50 µL) of the microsome solution were taken […]
quenching solution containing an internal standard. Solutions were clarified by centrifugation (16K x g, 5 min) and supernatants transferred to new tubes and lyophilized. Samples were reconstituted in 100 µL of 50/50/0.1 water/acetonitrile/formic acid prior to analysis via LC-MS/MS. […]
One µL FAH65 and its enantiomers (1 mM in 100% DMSO) was added to human peripheral blood plasma (Cat#70039, Stemcell Technologies Inc) diluted 2-fold in PBS (1000 µL, pH 7.4) and incubated […]

[7] = Pilot PK of FAH65 vs. verubecestat in rats; assay type: in vivo, rat; details: oral gavage, 30 mg/kg

T1 sequence (P56817 46-501): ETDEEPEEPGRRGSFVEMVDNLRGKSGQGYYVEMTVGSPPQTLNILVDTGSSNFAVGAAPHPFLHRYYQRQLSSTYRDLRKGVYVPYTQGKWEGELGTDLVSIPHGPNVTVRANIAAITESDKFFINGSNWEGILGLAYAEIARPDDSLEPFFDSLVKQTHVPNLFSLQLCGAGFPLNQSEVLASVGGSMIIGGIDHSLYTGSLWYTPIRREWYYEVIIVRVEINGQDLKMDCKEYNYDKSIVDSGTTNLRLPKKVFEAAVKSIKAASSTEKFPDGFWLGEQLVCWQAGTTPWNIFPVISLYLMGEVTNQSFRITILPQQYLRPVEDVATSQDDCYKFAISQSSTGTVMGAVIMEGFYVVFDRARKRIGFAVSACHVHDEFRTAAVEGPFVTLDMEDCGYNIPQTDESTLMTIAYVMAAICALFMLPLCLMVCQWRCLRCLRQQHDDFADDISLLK
Chain of BACE1 (P56817 46-501): as above
T2 sequence (P07339 65-412): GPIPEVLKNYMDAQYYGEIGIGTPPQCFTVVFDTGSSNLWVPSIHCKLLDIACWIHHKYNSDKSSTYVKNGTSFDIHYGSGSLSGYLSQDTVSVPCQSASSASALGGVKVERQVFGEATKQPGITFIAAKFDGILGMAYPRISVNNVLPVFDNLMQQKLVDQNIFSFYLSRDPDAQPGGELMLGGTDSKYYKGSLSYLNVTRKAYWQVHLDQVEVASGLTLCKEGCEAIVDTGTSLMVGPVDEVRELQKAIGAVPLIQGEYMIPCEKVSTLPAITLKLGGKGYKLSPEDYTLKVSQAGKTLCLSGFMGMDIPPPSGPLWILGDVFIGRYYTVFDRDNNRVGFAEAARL

Compound: Cc1cc(C2(c3cccc(-c4cncnc4)c3)N=C(N)N(C)C2=O)ccc1OC(F)F (stereo not shown) [FAH65]
- IC50 [1]: 7 nM and 10 to 30 nM and 10 nM and ~10 nM
- EC50 ([2]; SEAP-NRG1, HEK293): > 10000 nM
- IC50 ([2]; Table S1): 2000 nM
- substrate selectivity IC50 NRG1/IC50 APP ([2]; ratio): > 200
- inhibition of cathepsin D activity ([3]; in words): Neither analog significantly inhibited
- IC50 ([3]; read-out: Cat D IC50): ~47000 nM
- sAPPβ reduction [4]: > 90%
- sAPPβ production ([4]; 1 μM, 24-h treatment, in words): decrease
- Aβ1-42 production ([4]; 1 μM, in words): decrease
- Aβ1-42 [5]: significantly decreases
- solubility kinetic at 90 min [6]: 88 µM (≈ 37.3 µg/mL)
- Cmax ([7]; both sexes, Sprague-Dawley, rat, brain): 182 ng/g
- time of brain Cmax [7]: 2 h
